{"source": "paper PMC7692634", "about": "“Structural Basis of Inhibition of the Pioneer Transcription Factor NF-Y by Suramin” (Cells, 2020)", "key": {"[1]": {"target": "T1, NF-Yd (NF-YB/NF-YC histone fold domain dimer, YB/YCmd) (Homo sapiens, UniProt P25208+Q13952)", "T1 construct": "gene NFYB; minimal histone fold domains, NF-YB aa 49-141 with N-terminal 6His (thrombin-cleaved), NF-YC aa 27-120; coexpressed in E. coli BL21(DE3)", "T1 sequence (P25208 51-143)": "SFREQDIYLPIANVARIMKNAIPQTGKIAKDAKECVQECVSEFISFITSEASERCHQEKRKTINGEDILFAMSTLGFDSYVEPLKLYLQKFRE", "T1 sequence (Q13952 27-120)": "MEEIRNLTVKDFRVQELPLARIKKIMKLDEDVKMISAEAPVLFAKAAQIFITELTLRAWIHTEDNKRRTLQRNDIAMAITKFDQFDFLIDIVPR", "assay": "ITC", "assay_type": "binding"}, "[2]": {"target": "T2, NF-Yt (NF-Ymd, minimal domain NF-Y trimer) (Homo sapiens, UniProt P25208+Q13952)", "T2 construct": "gene NFYB; minimal domains NF-YB 49-141, NF-YC 27-120, NF-YA 262-332 with C-terminal 6His (thrombin-cleaved); coexpressed in E. coli BL21(DE3); with Nuclear transcription factor Y subunit alpha", "T2 sequence (P23511 262-332 partner, one chain of several)": "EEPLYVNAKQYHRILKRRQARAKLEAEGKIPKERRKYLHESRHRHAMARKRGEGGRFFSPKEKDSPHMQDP", "assay": "STD NMR; EMSA inhibition of DNA binding", "settings": "STD NMR: 25 µM protein, 1 mM suramin, 10 mM Tris-DCl pH 8, 150 mM NaCl, 25 °C; EMSA: 40 nM protein, 20 nM HSP70 CCAAT probe, pH 7.5, 30 °C"}, "[3]": {"target": "T3, NF-Yd/YA (reconstituted NF-Y trimer with YA3) (Homo sapiens, UniProt P25208+Q13952)", "T3 construct": "gene NFYB; NF-Yd (NF-YB 49-141/NF-YC 27-120, His-tag cut) mixed with separately purified NF-YA aa 239-347, C-terminal His-tag; E. coli BL21(DE3); with Nuclear transcription factor Y subunit alpha", "T3 sequence (P23511 239-347 partner, one chain of several)": "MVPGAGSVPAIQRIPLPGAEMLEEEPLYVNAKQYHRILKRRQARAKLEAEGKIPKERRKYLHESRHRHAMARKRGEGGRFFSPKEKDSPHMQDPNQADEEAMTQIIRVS", "assay": "EMSA inhibition of DNA binding", "settings": "40 nM protein, 20 nM Cy5 HSP70 CCAAT probe, pH 7.5, 5 mM MgCl2, 30 °C; suramin 50 and 100 µM"}}, "data": [{"molecule": "Cc1ccc(C(=O)Nc2ccc(S(=O)(=O)O)c3cc(S(=O)(=O)O)cc(S(=O)(=O)O)c23)cc1NC(=O)c1cccc(NC(=O)Nc2cccc(C(=O)Nc3cc(C(=O)Nc4ccc(S(=O)(=O)O)c5cc(S(=O)(=O)O)cc(S(=O)(=O)O)c45)ccc3C)c2)c1", "note": "[suramin]", "values": [{"measurement": "Kd", "setting": "[1]", "result": "2900 ± 700", "unit": "nM"}, {"measurement": "STD NMR; EMSA inhibition of DNA binding", "setting": "[2]", "result": "demonstrates the interaction of the compound with both the dimer and the trimer"}, {"measurement": "EMSA inhibition of DNA binding", "setting": "[3]", "result": "suramin addition substantially decreased the formation of NF-Y-bound DNA complexes, in a dose-dependent manner"}]}]}
